Measurements as given in the supplement of paper PMC8671470.
± gives the standard deviation of the averaged measurements.

Experiments:
HL-60 [1] = test: cell viability (% survival relative to DMSO control); higher = less cytotoxic; conditions: 72 h
In short: (§1)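 A rescreen of the full library used HL-60 cells in RPMI 1640 with 10% FBS on 384-well plates, run in duplicate at five tenfold concentrations (1–10,000 nM). Each screen included DMSO or 100 nM of one of three metabolic inhibitors and ran 72 h at 37 °C, 5% CO2. CellTiter-Glo viability was scaled between DMSO and 10 μM proteasome-inhibitor wells. Any area under the curve comes from four-parameter log-logistic fits with drc and PharmacoGx.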

HL-60 [2] = test: area under dose-response curve (viability, 1 nM-10 uM) (fraction (0-1)); higher = more sensitive; conditions: 72 h
In short: as §1

[3] = 0.001 µM, co-treatment: AZD3965 100 nM
[4] = 0.001 µM, co-treatment: DMSO vehicle
[5] = 0.001 µM, co-treatment: GSK2194069 100 nM
[6] = 0.001 µM, co-treatment: pictilisib 100 nM
[7] = 0.01 µM, co-treatment: AZD3965 100 nM
[8] = 0.01 µM, co-treatment: DMSO vehicle
[9] = 0.01 µM, co-treatment: GSK2194069 100 nM
[10] = 0.01 µM, co-treatment: pictilisib 100 nM
[11] = 0.1 µM, co-treatment: AZD3965 100 nM
[12] = 0.1 µM, co-treatment: DMSO vehicle
[13] = 0.1 µM, co-treatment: GSK2194069 100 nM
[14] = 0.1 µM, co-treatment: pictilisib 100 nM
[15] = 1 µM, co-treatment: AZD3965 100 nM
[16] = 1 µM, co-treatment: DMSO vehicle
[17] = 1 µM, co-treatment: GSK2194069 100 nM
[18] = 1 µM, co-treatment: pictilisib 100 nM
[19] = 10 µM, co-treatment: AZD3965 100 nM
[20] = 10 µM, co-treatment: DMSO vehicle
[21] = 10 µM, co-treatment: GSK2194069 100 nM
[22] = 10 µM, co-treatment: pictilisib 100 nM
[23] = co-treatment: GSK2194069 100 nM
[24] = co-treatment: pictilisib 100 nM

Row | Compound | cell viability (HL-60 [1]; [3]) | cell viability (HL-60 [1]; [4]) | cell viability (HL-60 [1]; [5]) | cell viability (HL-60 [1]; [6]) | cell viability (HL-60 [1]; [7]) | cell viability (HL-60 [1]; [8]) | cell viability (HL-60 [1]; [9]) | cell viability (HL-60 [1]; [10]) | cell viability (HL-60 [1]; [11]) | cell viability (HL-60 [1]; [12]) | cell viability (HL-60 [1]; [13]) | cell viability (HL-60 [1]; [14]) | cell viability (HL-60 [1]; [15]) | cell viability (HL-60 [1]; [16]) | cell viability (HL-60 [1]; [17]) | cell viability (HL-60 [1]; [18]) | cell viability (HL-60 [1]; [19]) | cell viability (HL-60 [1]; [20]) | cell viability (HL-60 [1]; [21]) | cell viability (HL-60 [1]; [22]) | area under dose-response curve (HL-60 [2]; co-treatment: AZD3965 100 nM) | area under dose-response curve (HL-60 [2]; co-treatment: DMSO vehicle) | area under dose-response curve (HL-60 [2]; [23]) | area under dose-response curve (HL-60 [2]; [24])
1 | CCCCCOC(=O)Nc1nc(=O)n([C@@H]2O[C@H](C)[C@@H](O)[C@H]2O)cc1F [Capecitabine] | 103 ± 7.9% | 98.8 ± 8.1% | 103 ± 7% | 104 ± 3.5% | 95.72 ± 0.16% | 100.39 ± 0.085% | 95.88 ± 0.56% | 96.7 ± 12% | 109 ± 4.4% | 106 ± 3% | 99.36 ± 0.11% | 95.4 ± 13% | 102 ± 2.5% | 99.7 ± 1.6% | 102 ± 1.4% | 108 ± 4.2% | 96.6 ± 4.8% | 98.7 ± 3% | 95.6 ± 11% | 113 ± 11% | < 0.0301 | < 0.0301 | < 0.0301 | < 0.0301
2 | Cc1ccc(-c2cc(C(F)(F)F)nn2-c2ccc(S(N)(=O)=O)cc2)cc1 [Celecoxib] | 104 ± 1.8% | 103 ± 1.3% | 101 ± 1.5% | 102 ± 3.9% | 99.7 ± 2.2% | 90.4 ± 19% | 87.7 ± 19% | 98.6 ± 12% | 101 ± 2.7% | 100 ± 3.8% | 97.67 ± 0.35% | 96.2 ± 5.6% | 106 ± 7.8% | 105 ± 8.1% | 103 ± 6.2% | 122 ± 8.5% | 114.8 ± 0.68% | 110.57 ± 0.073% | 104 ± 3% | 125 ± 10% | < 0.0301 | < 0.0301 | < 0.0301 | < 0.0301
3 | O=c1c(-c2ccc(O)cc2)coc2cc(O[C@@H]3O[C@H](CO)[C@@H](O)[C@H](O)[C@H]3O)ccc12 [Daidzin] | 94.4 ± 7.1% | 96.2 ± 3.1% | 96.5 ± 3.9% | 94 ± 11% | 104 ± 6.6% | 102 ± 5.1% | 105 ± 2.1% | 103 ± 11% | 102 ± 9.7% | 101.7 ± 0.79% | 102 ± 3.5% | 105 ± 3.9% | 84.8 ± 30% | 98.92 ± 0.91% | 98.7 ± 2.4% | 67.6 ± 43% | 107 ± 9.1% | 99.7 ± 1.7% | 101 ± 11% | 98.5 ± 12% | < 0.0301 | < 0.0301 | < 0.0301 | < 0.0301
4 | C[C@H]1c2cccc(O)c2C(=O)C2C(=O)[C@]3(O)C(=O)C(C(N)=O)C(=O)[C@@H](N(C)C)[C@@H]3[C@@H](O)[C@@H]21 (stereo not given in full) [Doxycycline] | 92.6 ± 9.1% | 100 ± 2.7% | 93.3 ± 7.2% | 91.7 ± 6.2% | 97.9 ± 4.6% | 101 ± 4.3% | 96 ± 4.9% | 98.48 ± 0.73% | 99.6 ± 4.2% | 104 ± 2% | 99.5 ± 5.7% | 99.2 ± 1.6% | 96.7 ± 8.5% | 102 ± 1.5% | 94.8 ± 6.5% | 102 ± 3.8% | 113 ± 5.6% | 114.8 ± 0.59% | 108.3 ± 0.83% | 96.9 ± 6.5% | < 0.0301 | < 0.0301 | < 0.0301 | < 0.0301
5 | OC[C@H]1NC[C@H](O)[C@@H](O)[C@@H]1O [Duvoglustat] | 96.9 ± 6.2% | 99.3 ± 1.8% | 97.4 ± 5.2% | 97.9 ± 10% | 99.7 ± 3.4% | 95.3 ± 2.3% | 92.82 ± 0.14% | 108 ± 14% | 96.3 ± 3.1% | 102 ± 3.9% | 107 ± 1.9% | 108 ± 8.1% | 96.5 ± 7.2% | 102 ± 2.6% | 105 ± 8.7% | 109 ± 1.7% | 94 ± 10% | 101.5 ± 0.68% | 95.8 ± 6.5% | 106 ± 4.1% | < 0.0301 | < 0.0301 | < 0.0301 | < 0.0301
6 | CCCc1nc(C)c2c(=O)nc(-c3cc(S(=O)(=O)N4CCN(CC)CC4)ccc3OCC)[nH]n12 [Vardenafil] | 98.1 ± 1.4% | 98.07 ± 0.13% | 97.9 ± 1.4% | 101 ± 3.4% | 100 ± 4.8% | 99.7 ± 5% | 98.3 ± 5.9% | 104 ± 1.9% | 96.8 ± 7.3% | 84.9 ± 20% | 88.3 ± 16% | 93 ± 2.5% | 108 ± 5.8% | 98.5 ± 4.3% | 108.1 ± 0.52% | 104 ± 7.8% | 100 ± 2.6% | 103 ± 3.1% | 92.4 ± 10% | 107 ± 5.3% | – | – | – | –
7 | CCc1c(C(=O)C(N)=O)c2c(OCC(=O)O)cccc2n1Cc1ccccc1 [Varespladib] | 97.7 ± 5.8% | 101 ± 3.8% | 92.6 ± 6.1% | 103 ± 4.1% | 99.9 ± 7% | 95.7 ± 2.9% | 93.5 ± 2.6% | 99.9 ± 18% | 102 ± 5.3% | 103 ± 8.2% | 97 ± 3.3% | 107 ± 3.4% | 100.2 ± 0.46% | 97.5 ± 1.5% | 92.9 ± 2.3% | 97.7 ± 1.4% | 97 ± 6.2% | 98.1 ± 5.8% | 89.1 ± 4.8% | 97.2 ± 11% | – | – | – | –
8 | N#Cc1ccc(N(Cc2ccc(Br)cc2)n2cnnc2)cc1 [YM511] | 83.2 ± 8.3% | 96.8 ± 4% | 96.8 ± 2% | 88.1 ± 9.3% | 106 ± 6.3% | 102 ± 4.8% | 81 ± 33% | 79.9 ± 18% | 102 ± 2% | 101.39 ± 0.056% | 105 ± 5.9% | 99.6 ± 1.7% | 95.3 ± 5.1% | 101 ± 2.3% | 97.49 ± 0.82% | 92.9 ± 4.6% | 96.88 ± 0.89% | 104 ± 4.4% | 102 ± 2.3% | 95.3 ± 5.3% | – | – | – | –
